Assay results published in PubChem BioAssay (NCI).
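Growth conditions: 96-well plates. Treatment: test compound, 48 hours, 5 concentrations. Analysis: linear interpolation between bracketing concentrations; unreached endpoints set to highest concentration. TGI: concentration producing complete growth inhibition.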

Columns and labels:
Test in all cases: NCI tumour cell line growth inhibition, 48 h
NCI-H460 lung = test system: NCI-H460 lung
A498 renal = test system: A498 renal
RPMI-8226 leukemia = test system: RPMI-8226 leukemia
TK-10 renal = test system: TK-10 renal
UO-31 renal = test system: UO-31 renal
OVCAR-4 ovarian = test system: OVCAR-4 ovarian
BT-549 breast = test system: BT-549 breast
SF-295 CNS = test system: SF-295 CNS
DU-145 prostate = test system: DU-145 prostate
HCT-116 colon = test system: HCT-116 colon
CCRF-CEM leukemia = test system: CCRF-CEM leukemia
OVCAR-3 ovarian = test system: OVCAR-3 ovarian
SN12C renal = test system: SN12C renal
M14 melanoma = test system: M14 melanoma
SK-MEL-5 melanoma = test system: SK-MEL-5 melanoma
ACHN renal = test system: ACHN renal
U251 CNS = test system: U251 CNS
T-47D breast = test system: T-47D breast
LOX IMVI melanoma = test system: LOX IMVI melanoma

SMILES	TGI (NCI-H460 lung) [µM]	TGI (A498 renal) [µM]	TGI (RPMI-8226 leukemia) [µM]	TGI (TK-10 renal) [µM]	TGI (UO-31 renal) [µM]	TGI (OVCAR-4 ovarian) [µM]	TGI (BT-549 breast) [µM]	TGI (SF-295 CNS) [µM]	TGI (DU-145 prostate) [µM]	TGI (HCT-116 colon) [µM]	TGI (CCRF-CEM leukemia) [µM]	TGI (OVCAR-3 ovarian) [µM]	TGI (SN12C renal) [µM]	TGI (M14 melanoma) [µM]	TGI (SK-MEL-5 melanoma) [µM]	TGI (ACHN renal) [µM]	TGI (U251 CNS) [µM]	TGI (T-47D breast) [µM]	TGI (LOX IMVI melanoma) [µM]
CCOP(=O)(OCC)C(F)(F)Cc1cnc(C)c2c1COC(C)(C)O2	> 10	> 10	> 10	> 10	> 10	> 10	> 10	> 10	> 10	> 10	> 10	> 10	> 10	> 10	> 10	> 10	> 10	> 10	–
COc1ccc(N=CN(C)C)c(C)c1	–	60.5	> 100	> 100	78.1	73.6	58.2	51.6	82	19.6	16.5	13.1	64	55.5	12.5	66.3	72.5	68.4	15.2
CCN(CC)CCCNc1ncc(C)c2c1c1ccc3c(O)cccc3c1n2C	–	32	> 23.9	22.9	21.2	3.45	4.05	4.76	3.79	2.28	6.1	18.2	14.3	9.07	13.4	12.8	2.6	49.3	2.64
CCOP(=O)(OCC)C(Nc1ccc(C(=O)O)cc1)c1ccc(C(Nc2ccc(C(=O)O)cc2)P(=O)(OCC)OCC)cc1 (stereo not drawn)	> 100	> 100	> 100	> 100	> 100	> 100	> 100	> 100	> 100	> 100	> 100	> 100	–	> 100	> 100	> 100	> 100	> 100	> 100
CC(C)NC(=O)OCc1c(COC(=O)NC(C)C)c(-c2ccc[n+](COC(=O)C(C)(C)C)c2)n2c1CCC2	> 100	> 91.9	> 100	> 100	> 100	> 100	> 100	> 100	> 100	> 100	> 100	> 100	> 100	> 100	> 100	> 100	> 100	> 100	> 100
c1cc(C[S+]2CCCC2)sc1C[S+]1CCCC1	> 100	> 100	> 100	> 100	> 100	> 100	> 100	> 100	> 100	> 100	> 100	> 100	> 100	> 100	> 100	> 100	> 100	> 100	> 100
O=C1COCCN1C(=O)c1ccccc1Cl	> 100	> 100	> 100	> 100	> 100	> 100	> 100	> 100	> 100	> 100	> 100	> 100	> 100	> 100	> 100	> 100	> 100	> 100	> 100
COC(=O)[C@H](COC(=O)/C=C/c1ccc(OC(C)=O)c(OC(C)=O)c1)NC(=O)/C=C/c1ccc(OC(C)=O)c(OC(C)=O)c1	53.9	> 100	> 100	–	–	38.9	34.9	–	29.4	36.2	> 100	33.5	36.4	54.3	31.6	42.2	> 100	14.4	95.6
N#CC1(C#N)C(c2ccccc2)C=CC(c2ccc([N+](=O)[O-])cc2)C1(C#N)C#N (stereo not drawn)	> 100	32.1	> 25.6	13.1	26.8	30.5	24.3	33.7	27.3	13.7	> 100	23.2	12.2	15.7	22.9	9.54	53	7.27	6.87
CCOC(=O)c1ccc(Nc2nc3cc(C(F)(F)F)ccc3nc2C(=O)OCC)cc1	> 100	> 100	> 100	63.1	> 100	–	> 100	> 100	> 100	> 100	> 100	> 100	> 100	> 100	89.3	> 100	40.7	> 100	> 100
Cc1ccc(C2SCC(=O)N2NC(=O)c2ccncc2)s1 (stereo not drawn)	–	> 100	> 100	> 100	> 100	> 100	> 100	> 100	> 100	> 100	> 100	> 100	> 100	> 100	> 100	> 100	> 100	> 100	> 100
COC(=O)/C=C1/OC(c2ccc(C)cc2)=C(Cl)C1=O	51	33.6	14.4	34.9	31.6	27.5	42.2	41.7	32.7	24.7	11.7	27.1	38	35.5	27.9	30.4	24.6	52.1	23.7
COc1cccc(Nc2nc(N)nc(N)c2N=O)c1	29.1	47.7	60.6	60.5	38.1	78.5	96.8	76.6	36.7	38.2	93.4	> 100	> 100	86.6	39.1	89	> 100	24.3	32.6
